{"source": "patent US20250134855A1", "about": "“CO[…] AND METHODS OF USING SAME” (LYKOS THERAPEUTICS, INC., priority 2022, published 2025)", "key": {"MATE2-K": {"target": "MATE2-K (Homo sapiens, UniProt Q86VL8)", "sequence (Q86VL8 1-566 isoform Q86VL8-3)": "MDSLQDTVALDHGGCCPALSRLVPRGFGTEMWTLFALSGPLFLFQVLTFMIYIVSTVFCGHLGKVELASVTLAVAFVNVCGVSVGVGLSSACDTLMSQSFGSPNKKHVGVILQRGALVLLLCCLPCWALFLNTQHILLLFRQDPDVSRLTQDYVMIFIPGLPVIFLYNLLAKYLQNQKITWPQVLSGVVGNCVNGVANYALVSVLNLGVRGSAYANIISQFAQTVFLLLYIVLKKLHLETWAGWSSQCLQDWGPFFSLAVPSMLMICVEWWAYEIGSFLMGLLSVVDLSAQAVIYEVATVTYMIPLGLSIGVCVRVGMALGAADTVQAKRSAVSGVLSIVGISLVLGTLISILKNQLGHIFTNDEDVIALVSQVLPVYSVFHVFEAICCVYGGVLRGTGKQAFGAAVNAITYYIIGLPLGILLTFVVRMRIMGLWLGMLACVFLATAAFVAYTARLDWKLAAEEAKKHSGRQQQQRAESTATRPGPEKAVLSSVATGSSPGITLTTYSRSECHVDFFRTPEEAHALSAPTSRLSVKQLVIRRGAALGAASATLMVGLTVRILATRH", "experiment": "Transporter inhibition, MATE2-K"}, "OCT2": {"target": "OCT2 (Homo sapiens, UniProt O15244)", "sequence (O15244 whole entry)": "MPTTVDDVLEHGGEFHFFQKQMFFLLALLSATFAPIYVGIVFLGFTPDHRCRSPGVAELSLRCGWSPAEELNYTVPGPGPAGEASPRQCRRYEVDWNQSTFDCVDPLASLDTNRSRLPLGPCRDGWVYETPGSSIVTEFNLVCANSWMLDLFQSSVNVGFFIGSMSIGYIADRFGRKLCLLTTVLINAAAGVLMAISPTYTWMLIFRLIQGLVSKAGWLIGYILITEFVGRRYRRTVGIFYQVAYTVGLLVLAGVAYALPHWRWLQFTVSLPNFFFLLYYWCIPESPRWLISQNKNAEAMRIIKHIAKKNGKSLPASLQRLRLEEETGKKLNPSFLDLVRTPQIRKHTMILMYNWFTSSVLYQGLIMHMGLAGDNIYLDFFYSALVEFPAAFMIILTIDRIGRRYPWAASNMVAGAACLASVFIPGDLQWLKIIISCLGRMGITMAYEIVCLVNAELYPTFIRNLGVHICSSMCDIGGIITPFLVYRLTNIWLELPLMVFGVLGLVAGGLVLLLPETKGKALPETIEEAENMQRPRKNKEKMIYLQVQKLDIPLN", "experiment": "Transporter inhibition, OCT2", "settings": "at supratherapeutic concentrations"}, "[1]": {"tested_on": "MDMA-AT trial participants (MAPP1 and MAPP2)", "experiment": "MPLONG long-term follow-up: CAPS-5 durability, responder analysis, relapse", "format": "in vivo, human", "from_the_text": "MPLONG is an observational long-term follow-up study for MDMA-AT trial participants intended to provide data on treatment durability as measured by the CAPS-5 and Sheehan Disability Scale (SDS). Participants who elect to enroll in MPLONG completed a LTFU visit at least 6 months following their completion of the parent study. MPLONG opened for enrollment 8 months following the last subject visit of the MAPP1 trial and MAPP1 participants entered MPLONG unblinded to their treatment assignment. Enrollees from the second Phase 3 trial MAPP2, however, complete LTFU with blinding maintained.\nA sensitivity analysis was conducted to determine whether there was a detectable difference in the observed trend dependent on the time elapsed since the parent study (Table 47 (Table 47 (Table 47). There was no observable impact of the time window, as durability was maintained in both those with LFTU within a year and those with LTFU greater than 12 months after study termination."}, "[2]": {"settings": "LTFU visit, MAPP1 and MAPP2, loss of diagnosis at study termination and ≥10 point increase and meeting PTSD diagnostic criteria at LTFU"}, "[3]": {"settings": "LTFU visit, MAPP1 and MAPP2, remission at study termination and >11 CAPS-5 TSS at LTFU"}, "[4]": {"settings": "LTFU visit, MAPP1 and MAPP2, ≤11 CAPS-5 TSS from BL not meeting PTSD diagnostic criteria at LTFU"}, "[5]": {"settings": "LTFU visit, MAPP1 and MAPP2, ≥10 point reduction in CAPS-5 TSS from BL and ≥10 point increase from study termination at LTFU"}, "[6]": {"settings": "LTFU visit, MAPP1 and MAPP2, ≥10 pt reduction in CAPS-5 TSS from BL and not meeting PTSD diagnostic criteria at LTFU"}, "[7]": {"settings": "LTFU visit, MAPP1 and MAPP2, ≥10 pt reduction in CAPS-5 TSS from BL at study termination and LTFU"}, "[8]": {"settings": "MAPP1 and MAPP2, LTFU 6-12 Months"}, "[9]": {"settings": "MAPP1 and MAPP2, LTFU >12 Months"}, "[10]": {"settings": "MAPP1 and MAPP2, Study Termination (last available assessment in parent study)"}, "[11]": {"settings": "MAPP2 participants only, Long Term Follow Up Study Visit 1"}, "[12]": {"settings": "MPLONG, MAPP1 and MAPP2 participants, Visit 1"}, "[13]": {"settings": "MPLONG, MAPP1 and MAPP2 participants, parent study Baseline"}, "[14]": {"settings": "MPLONG, MAPP1 and MAPP2 participants, parent study Visit 8"}, "[15]": {"settings": "MPLONG, MAPP1 and MAPP2 participants, parent study Visit 13"}, "[16]": {"settings": "MPLONG, MAPP1 and MAPP2 participants, parent study Visit 19"}, "[17]": {"settings": "MPLONG, MAPP2 participants only, parent study Baseline"}, "[18]": {"settings": "MPLONG, MAPP2 participants only, parent study Visit 8"}, "[19]": {"settings": "MPLONG, MAPP2 participants only, parent study Visit 13"}, "[20]": {"settings": "MPLONG, MAPP2 participants only, parent study Visit 19"}}, "data": [{"compound": "CNC(C)Cc1ccc2c(c1)OCO2", "note": "(stereo not drawn) [MDMA, 3,4-methylenedioxymethamphetamine]", "values": [{"measurement": "inhibition of MATE2-K", "setting": "MATE2-K", "result": "not an inhibitor"}, {"measurement": "inhibition of OCT2", "setting": "OCT2", "result": "inhibits"}, {"measurement": "Relapse after Loss of Diagnosis, Does not meet criteria, %", "setting": "[1]; [2]", "result": "(93.8) %"}, {"measurement": "Relapse after Loss of Diagnosis, Meets criteria, %", "setting": "[1]; [2]", "result": "(6.2) %"}, {"measurement": "Relapse of Remission, Does not meet criteria, %", "setting": "[1]; [3]", "result": "(95.4) %"}, {"measurement": "Relapse of Remission, Meets criteria, %", "setting": "[1]; [3]", "result": "(4.6) %"}, {"measurement": "Durable Remission, Does not meet criteria, %", "setting": "[1]; [4]", "result": "(40.0) %"}, {"measurement": "Durable Remission, Meets criteria, %", "setting": "[1]; [4]", "result": "(60.0) %"}, {"measurement": "Relapse after Treatment Response, Does not meet criteria, %", "setting": "[1]; [5]", "result": "(93.8) %"}, {"measurement": "Relapse after Treatment Response, Meets criteria, %", "setting": "[1]; [5]", "result": "(6.2) %"}, {"measurement": "Durable Loss of Diagnosis, Does not meet criteria, %", "setting": "[1]; [6]", "result": "(16.9) %"}, {"measurement": "Durable Loss of Diagnosis, Meets criteria, %", "setting": "[1]; [6]", "result": "(83.1) %"}, {"measurement": "Durable Treatment Response, Does not meet criteria, %", "setting": "[1]; [7]", "result": "(10.8) %"}, {"measurement": "Durable Treatment Response, Meets criteria, %", "setting": "[1]; [7]", "result": "(89.2) %"}, {"measurement": "loss of diagnosis at LTFU", "setting": "[1]; MAPP1 and MAPP2", "result": 83.1, "unit": "%"}, {"measurement": "met the definition of treatment response at LTFU", "setting": "[1]; MAPP1 and MAPP2", "result": 89.2, "unit": "%"}, {"measurement": "relapse following remission", "setting": "[1]; MAPP1 and MAPP2", "result": 4.6, "unit": "%"}, {"measurement": "relapse following treatment response or loss of diagnosis", "setting": "[1]; MAPP1 and MAPP2", "result": 12.3, "unit": "%"}, {"measurement": "remission at LTFU", "setting": "[1]; MAPP1 and MAPP2", "result": 60, "unit": "%"}, {"measurement": "CAPS-5 Total Severity Score, Actual, Mean", "setting": "[1]; [8]", "result": 11.9}, {"measurement": "CAPS-5 Total Severity Score, Actual, Median", "setting": "[1]; [8]", "result": 9.0}, {"measurement": "CAPS-5 Total Severity Score, Change from Study Termination, Mean", "setting": "[1]; [8]", "result": "−3.7"}, {"measurement": "CAPS-5 Total Severity Score, Change from Study Termination, Median", "setting": "[1]; [8]", "result": "−2.5"}, {"measurement": "CAPS-5 Total Severity Score, Actual, Mean", "setting": "[1]; [9]", "result": 11.2}, {"measurement": "CAPS-5 Total Severity Score, Actual, Median", "setting": "[1]; [9]", "result": 6.0}, {"measurement": "CAPS-5 Total Severity Score, Change from Study Termination, Mean", "setting": "[1]; [9]", "result": "−5.9"}, {"measurement": "CAPS-5 Total Severity Score, Change from Study Termination, Median", "setting": "[1]; [9]", "result": "−5.0"}, {"measurement": "CAPS-5 Total Severity Score, Actual, Mean", "setting": "[1]; [10]", "result": 16.4}, {"measurement": "CAPS-5 Total Severity Score, Actual, Median", "setting": "[1]; [10]", "result": 15.0}, {"measurement": "mean change from baseline (CFB) in CAPS-5 scores at LTFU", "setting": "[1]; MAPP2 parent study", "result": "−28.7"}, {"measurement": "CAPS-5 Total Severity Score, Actual, Mean", "setting": "[1]; [11]", "result": 10.7}, {"measurement": "CAPS-5 Total Severity Score, Actual, Median", "setting": "[1]; [11]", "result": 8.5}, {"measurement": "CAPS-5 Total Severity Score, CFB, Mean", "setting": "[1]; [11]", "result": "−28.7"}, {"measurement": "CAPS-5 Total Severity Score, CFB, Median", "setting": "[1]; [11]", "result": "−30.5"}, {"measurement": "CAPS-5 Total Severity Score, Actual, Mean", "setting": "[1]; [12]", "result": 11.5}, {"measurement": "CAPS-5 Total Severity Score, Actual, Median", "setting": "[1]; [12]", "result": 8.0}, {"measurement": "CAPS-5 Total Severity Score, CFB, Mean", "setting": "[1]; [12]", "result": "−29.2"}, {"measurement": "CAPS-5 Total Severity Score, CFB, Median", "setting": "[1]; [12]", "result": "−31.0"}, {"measurement": "CAPS-5 Total Severity Score, Actual, Mean", "setting": "[1]; [13]", "result": 40.8}, {"measurement": "CAPS-5 Total Severity Score, Actual, Median", "setting": "[1]; [13]", "result": 40.0}, {"measurement": "CAPS-5 Total Severity Score, Actual, Mean", "setting": "[1]; [14]", "result": 29.5}, {"measurement": "CAPS-5 Total Severity Score, Actual, Median", "setting": "[1]; [14]", "result": 31.0}, {"measurement": "CAPS-5 Total Severity Score, CFB, Mean", "setting": "[1]; [14]", "result": "−11.3"}, {"measurement": "CAPS-5 Total Severity Score, CFB, Median", "setting": "[1]; [14]", "result": "−12.0"}, {"measurement": "CAPS-5 Total Severity Score, Actual, Mean", "setting": "[1]; [15]", "result": 22.0}, {"measurement": "CAPS-5 Total Severity Score, Actual, Median", "setting": "[1]; [15]", "result": 23.0}, {"measurement": "CAPS-5 Total Severity Score, CFB, Mean", "setting": "[1]; [15]", "result": "−18.8"}, {"measurement": "CAPS-5 Total Severity Score, CFB, Median", "setting": "[1]; [15]", "result": "−19.0"}, {"measurement": "CAPS-5 Total Severity Score, Actual, Mean", "setting": "[1]; [16]", "result": 15.9}, {"measurement": "CAPS-5 Total Severity Score, Actual, Median", "setting": "[1]; [16]", "result": 14.0}, {"measurement": "CAPS-5 Total Severity Score, CFB, Mean", "setting": "[1]; [16]", "result": "−24.8"}, {"measurement": "CAPS-5 Total Severity Score, CFB, Median", "setting": "[1]; [16]", "result": "−27.0"}, {"measurement": "CAPS-5 Total Severity Score, Actual, Mean", "setting": "[1]; [17]", "result": 39.4}, {"measurement": "CAPS-5 Total Severity Score, Actual, Median", "setting": "[1]; [17]", "result": 38.5}, {"measurement": "CAPS-5 Total Severity Score, Actual, Mean", "setting": "[1]; [18]", "result": 28.1}, {"measurement": "CAPS-5 Total Severity Score, Actual, Median", "setting": "[1]; [18]", "result": 30.5}, {"measurement": "CAPS-5 Total Severity Score, CFB, Mean", "setting": "[1]; [18]", "result": "−11.3"}, {"measurement": "CAPS-5 Total Severity Score, CFB, Median", "setting": "[1]; [18]", "result": "−12.0"}, {"measurement": "CAPS-5 Total Severity Score, Actual, Mean", "setting": "[1]; [19]", "result": 19.7}, {"measurement": "CAPS-5 Total Severity Score, Actual, Median", "setting": "[1]; [19]", "result": 18.0}, {"measurement": "CAPS-5 Total Severity Score, CFB, Mean", "setting": "[1]; [19]", "result": "−19.8"}, {"measurement": "CAPS-5 Total Severity Score, CFB, Median", "setting": "[1]; [19]", "result": "−22.0"}, {"measurement": "CAPS-5 Total Severity Score, Actual, Mean", "setting": "[1]; [20]", "result": 14.8}, {"measurement": "CAPS-5 Total Severity Score, Actual, Median", "setting": "[1]; [20]", "result": 12.0}, {"measurement": "CAPS-5 Total Severity Score, CFB, Mean", "setting": "[1]; [20]", "result": "−24.5"}, {"measurement": "CAPS-5 Total Severity Score, CFB, Median", "setting": "[1]; [20]", "result": "−27.0"}]}]}
